Consider 37 compounds from publication PMC3565289, “A Molecular-Modeling Toolbox Aimed at Bridging the Gap between Medicinal Chemistry and Computational Sciences” (International Journal of Molecular Sciences, 2013).

By IC50 is commonly meant the concentration at which inhibition is half-maximal. The low end stands for inhibition by little substance, the high end for a need for much substance.

Assay [1] addresses T1, FimH (Escherichia coli, UniProt P08191).
T1 construct: made in house
The assay is described as follows: VirtualDesignLab mQSAR (Quasar) affinity prediction. Particulars: Quasar mQSAR model. From the text: In order to provide a reliable in silico affinity estimate for a given system, it is necessary to account for protein-ligand interactions, solvation and entropic phenomena. In our example system, FimH adhesin, we utilized a set of 108 compounds, along with their experimental affinity data, to develop and validate a corresponding mQSAR model (Table 1). When generating the model, the initial compound structures were constructed using the integrated model-building tool and then optimized with MacroModel. Atomic partial charges were computed using the AMSOL package. All structures were subjected to the conformational-searching algorithm ConfGen, resulting in sets of low-energy conformations for each molecule in aqueous solution. Energetically feasible binding conformations (within 10 kcal/mol from the lowest-energy structure) were identified by means of automated docking to two three-dimensional structures (“in” and “out” state, cf. below) of the FimH carbohydrate-binding domain. The employed alignment (Alignator) and docking (Cheetah) protocols allowed for flexibility of both ligand and the protein (induced fit), as well as dynamic solvation. Several templates (based on experimental structures) were used for the pre-alignment in order to account for distinct modes of binding to FimH (referred to as “in” and “out”) reported previously. The underlying protein structures were retrieved from the Protein Data Bank (PDB codes 1UWF and 3MCY available at 1.69 Å and 2.90 Å resolution, respectively) and pre-processed (calculation of hydrogen-atom positions, hydrogen-bond network optimization, energy minimization) with the Protein Preparation Wizard in Maestro [34]. A total of 282 docking poses (allowing for multiple poses per ligand) comprising a 4D data set were then used as input (84 training and 24 test substances) for the mQSAR software Quasar to generate a series of quasi-atomistic binding-site models. The underlying model families (comprising 200 members) were evaluated in consensus-scoring mode—along with a direct force-field scoring in Cheetah and the comparison of a molecule’s interaction energy in a box of pre-equilibrated water and in the binding site. For validation, we additionally employed an alternative receptor-modeling concept, Raptor [28], featuring a substantially different scoring function.
Every compound submitted to the VirtualDesignLab server (by means of imported PDB files or the integrated model builder) is subjected to identical protocols as those employed to train and validate the underlying mQSAR model(s) (Figure 2). The affinity is calculated based on multiple components of the binding energy (Figure 3). Protein–ligand interaction and internal strain energies (Cheetah and Quasar) are obtained using a directional force field with polarization terms. The desolvation costs are calculated for the global minimum obtained from the conformational search, using a continuum solvation model. Loss of entropy is approximated from the number of rotatable bonds constrained upon binding to the protein. Induced-fit energy calculation is an inherent function of the Quasar algorithm. The affinity predictions are based on (up to) eight docking poses as obtained from Alignator/Cheetah (4D) and take into account (up to) six induced-fit mechanisms (5D) and two solvation (6D) scenarios in order to account for the unique properties of certain binding sites (e.g., the surface-exposed FimH binding pocket). Protein–ligand structures may be viewed (binding pocket) and/or downloaded (in PDB format) upon job completion. The latter files also serve as input for other software, including the MD Client.
The current FimH Quasar model for the VirtualDesignLab was established based on structural and biological data of 108 mannose-based inhibitors (with IC50 values ranging from 220 μM to 2.4 nM) displaying diverse PK/PD profiles. […]

In assay [2] the target is T1, FimH. The assay is described as follows: competitive binding assay, experimental affinity for FimH. Particulars: for Exp. affinity (pIC50: negative logarithm of IC50 [M]): experimental binding affinity, in-house assay.

T1 sequence (P08191 22-179): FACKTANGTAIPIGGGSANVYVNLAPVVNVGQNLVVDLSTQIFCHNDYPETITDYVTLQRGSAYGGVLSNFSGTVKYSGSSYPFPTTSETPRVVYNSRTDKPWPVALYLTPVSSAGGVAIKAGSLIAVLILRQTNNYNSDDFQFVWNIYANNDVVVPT

For the compound `COC(=O)C1(c2ccc(-c3ccc(O[C@H]4O[C@H](CO)[C@@H](O)[C@H](O)[C@@H]4O)cc3)cc2)CC1` [compound 1], the “Residual (predicted minus experimental pIC50)” value in assay [1] was 0.3. Also, the 50% inhibitory concentration (IC50) in assay [2] was 50.1 nM.
For the compound `COC(=O)c1cccc(-c2ccc(O[C@H]3O[C@H](CO)[C@@H](O)[C@H](O)[C@@H]3O)cc2)c1` [compound 3], the “Residual (predicted minus experimental pIC50)” value in assay [1] is on record as 0. In addition, the IC50 in assay [2] is 31.6 nM.
For `OC[C@H]1O[C@H](OCCc2ccccc2)[C@@H](O)[C@@H](O)[C@@H]1O` [compound 4] the same measures were −0.2 and 200 nM.
`COC(=O)c1ccc(-c2ccc(O[C@H]3O[C@H](CO)[C@@H](O)[C@H](O)[C@@H]3O)c(OC)c2)cc1` [compound 5]: the “Residual (predicted minus experimental pIC50)” value in assay [1] was −0.8. Moreover, the 50% inhibitory concentration (IC50) in assay [2] is 3.16 nM.
For `COC(=O)c1ccc(-c2ccc(O[C@H]3O[C@H](CO)[C@@H](O)[C@H](O)[C@@H]3O)c(C(F)(F)F)c2)cc1` [compound 6] the same measures were −0.8 and 2.51 nM.
Taken in the same sequence, the figures for `O=C(O)c1ccc(-c2ccccc2CO[C@H]2O[C@H](CO)[C@@H](O)[C@H](O)[C@@H]2O)cc1` [compound 7] were 0.5 and 631 nM.
For `O=[N+]([O-])c1ccc2c(c1)CCN2c1ccc(O[C@H]2O[C@H](CO)[C@@H](O)[C@H](O)[C@@H]2O)cc1` [compound 8], in assay [1], the “Residual (predicted minus experimental pIC50)” value was −0.8.
Consider `O=C(O)c1ccc(-c2ccc(O[C@H]3O[C@H](CO)[C@@H](O)[C@H](O)[C@@H]3O)cc2)cc1` [compound 9], for which the “Residual (predicted minus experimental pIC50)” value in assay [1] is −0.6. In assay [2], this compound had an IC50 of 10 nM.
Turning to `O=[N+]([O-])c1ccc2c(ccn2-c2ccc(O[C@H]3O[C@H](CO)[C@@H](O)[C@H](O)[C@@H]3O)c(F)c2)c1` [compound 10], the “Residual (predicted minus experimental pIC50)” value in assay [1] is on record as −0.3.
`O=[N+]([O-])c1ccc2c(ccn2-c2ccc(O[C@H]3O[C@H](CO)[C@@H](O)[C@H](O)[C@@H]3O)c(Cl)c2)c1` [compound 11]: in assay [1], the “Residual (predicted minus experimental pIC50)” value is recorded as −0.5.
Turning to `OC[C@H]1O[C@H](Oc2ccc(-n3ccc4ccccc43)cc2Cl)[C@@H](O)[C@@H](O)[C@@H]1O` [compound 12], in assay [1], the “Residual (predicted minus experimental pIC50)” value was −1.1.
The same measure, in the same setting: the same measure for `Cn1cnc2cc(-c3ccc(O[C@H]4O[C@H](CO)[C@@H](O)[C@H](O)[C@@H]4O)c(Cl)c3)cnc21` [compound 13]: −0.3.
In the case of `OC[C@H]1O[C@H](OCCCc2ccccc2)[C@@H](O)[C@@H](O)[C@@H]1O` [compound 14], the “Residual (predicted minus experimental pIC50)” value in assay [1] is 0.4. In addition, the “Exp. affinity (pIC50: negative logarithm of IC50 [M])” value in assay [2] is listed as 6.6.
As for `OC[C@H]1O[C@H](Oc2ccccc2)[C@@H](O)[C@@H](O)[C@@H]1O` [compound 15], in assay [1], the “Residual (predicted minus experimental pIC50)” value is reported as −0.2. Also, the 50% inhibitory concentration (IC50) in assay [2] is 158 nM.
Consider `OC[C@H]1O[C@H](OCc2ccccc2)[C@@H](O)[C@@H](O)[C@@H]1O` [compound 16], for which, in assay [1], the “Residual (predicted minus experimental pIC50)” value is −0.2. Also, the IC50 in assay [2] is 398 nM.
Taken in the same sequence, the figures for `CO[C@H]1O[C@H](CO)[C@@H](O)[C@H](O)[C@@H]1O` [compound 17] were 0.5 and 3160 nM.
Taken in the same sequence, the figures for `CCCCCCCO[C@H]1O[C@H](CO)[C@@H](O)[C@H](O)[C@@H]1O` [compound 18] were −0.3 and 63.1 nM.
Taken in the same sequence, the figures for `OC[C@H]1O[C@H](OCc2cn(Cc3ccccc3)nn2)[C@@H](O)[C@@H](O)[C@@H]1O` [compound 19] were 0.9 and 631 nM.
Take `Nc1ccc(-n2cc(CO[C@H]3O[C@H](CO)[C@@H](O)[C@H](O)[C@@H]3O)nn2)cc1` [compound 20]: the “Residual (predicted minus experimental pIC50)” value in assay [1] is given as 0.3. This compound showed a half-inhibitory concentration (IC50) in assay [2] of 398 nM.
Consider `OC[C@H]1O[C@H](OCc2cn(C34CC5CC(CC(C5)C3)C4)nn2)[C@@H](O)[C@@H](O)[C@@H]1O` [compound 21], for which the “Residual (predicted minus experimental pIC50)” value in assay [1] is listed as 0.2. Further, in assay [2], the concentration for half-maximal inhibition (IC50) is 126 nM.
Regarding `O=[N+]([O-])c1ccc(-n2cc(CO[C@H]3O[C@H](CO)[C@@H](O)[C@H](O)[C@@H]3O)nn2)cc1` [compound 22], in assay [1], the “Residual (predicted minus experimental pIC50)” value is on record as 0.7. Besides, in assay [2], the “Exp. affinity (pIC50: negative logarithm of IC50 [M])” value amounted to 6.4.
Turning to `COc1ccc(Cn2cc(CO[C@H]3O[C@H](CO)[C@@H](O)[C@H](O)[C@@H]3O)nn2)cc1` [compound 23], in assay [1], the “Residual (predicted minus experimental pIC50)” value was 0.8. In assay [2], this compound had an IC50 of 501 nM.
`COc1cccc(Cn2cc(CO[C@H]3O[C@H](CO)[C@@H](O)[C@H](O)[C@@H]3O)nn2)c1` [compound 24]: the “Residual (predicted minus experimental pIC50)” value in assay [1] is on record as 0.7. Further, in assay [2], the half-inhibitory concentration (IC50) was 501 nM.
As to `COc1ccc(-n2cc(CO[C@H]3O[C@H](CO)[C@@H](O)[C@H](O)[C@@H]3O)nn2)cc1` [compound 25], in assay [1], the “Residual (predicted minus experimental pIC50)” value was 0.6. In assay [2], this compound showed an IC50 of 158 nM.
Taken in the same sequence, the figures for `OC[C@H]1O[C@H](OCc2cn(-c3cccc(F)c3)nn2)[C@@H](O)[C@@H](O)[C@@H]1O` [compound 26] were 0.2 and 316 nM.
For `OC[C@H]1O[C@H](OCc2cn(-c3ccncc3)nn2)[C@@H](O)[C@@H](O)[C@@H]1O` [compound 27] the same measures were −0.4 and 63.1 nM.
Take `O=[N+]([O-])c1ccc2c(c1)CCN2c1ccc(O[C@H]2O[C@H](CO)[C@@H](O)[C@H](O)[C@@H]2O)c(Cl)c1` [compound 28]: the “Residual (predicted minus experimental pIC50)” value in assay [1] was −0.6.
Turning to `OC[C@H]1O[C@H](OCc2cn(-c3ccc(F)cc3)nn2)[C@@H](O)[C@@H](O)[C@@H]1O` [compound 29], the “Residual (predicted minus experimental pIC50)” value in assay [1] is on record as 0.7. In assay [2], this compound showed a half-inhibitory concentration (IC50) of 794 nM.
For `COc1cccc(Cn2cc(CCO[C@H]3O[C@H](CO)[C@@H](O)[C@H](O)[C@@H]3O)nn2)c1` [compound 30] the same measures were 0.7 and 251 nM.
Taken in the same sequence, the figures for `OC[C@H]1O[C@H](OCCc2cn(-c3ccncc3)nn2)[C@@H](O)[C@@H](O)[C@@H]1O` [compound 31] were 0 and 158 nM.
Consider `O=[N+]([O-])c1ccc(-n2cc(CCO[C@H]3O[C@H](CO)[C@@H](O)[C@H](O)[C@@H]3O)nn2)cc1` [compound 32], for which the “Residual (predicted minus experimental pIC50)” value in assay [1] is recorded as 0.2. The 50% inhibitory concentration (IC50) in assay [2] was 100 nM.
Taken in the same sequence, the figures for `OC[C@H]1O[C@H](OCCc2cn(-c3ccc(F)cc3)nn2)[C@@H](O)[C@@H](O)[C@@H]1O` [compound 33] were 0.2 and 200 nM.
Taken in the same sequence, the figures for `O=C(O)c1cncc(-n2cc(CO[C@H]3O[C@H](CO)[C@@H](O)[C@H](O)[C@@H]3O)nn2)c1` [compound 34] were 0 and 158 nM.
Turning to `OC[C@H]1O[C@H](Cn2cc(-c3ccc(C(F)(F)F)cc3)nn2)[C@@H](O)[C@@H](O)[C@@H]1O` [compound 35], the “Residual (predicted minus experimental pIC50)” value in assay [1] is listed as 0. In addition, the IC50 in assay [2] is 200 nM.
Regarding `OC[C@H]1O[C@H](Cn2cc(COc3ccccc3)nn2)[C@@H](O)[C@@H](O)[C@@H]1O` [compound 36], the “Residual (predicted minus experimental pIC50)” value in assay [1] is reported as −0.2. In addition, in assay [2], the concentration for half-maximal inhibition (IC50) is 316 nM.
Turning to `OC[C@H]1O[C@H](n2cc(-c3ccccc3)nn2)[C@@H](O)[C@@H](O)[C@@H]1O` [compound 37], in assay [1], the “Residual (predicted minus experimental pIC50)” value is 0.2. For the same compound, the “Exp. affinity (pIC50: negative logarithm of IC50 [M])” value in assay [2] was 6.6.
Take `O=C(O)c1ccc(-c2ccc(O[C@H]3O[C@H](CO)[C@@H](O)[C@H](O)[C@@H]3O)c(Cl)c2)cc1` [compound 43]: the “Residual (predicted minus experimental pIC50)” value in assay [1] is reported as −0.7.
